Columns and labels:
human serum albumin [1] = target: T1, human serum albumin (Homo sapiens, UniProt P02768); assay: Ultrafiltration competition assay: displacement of IS from HSA; format: binding; settings: IS 250 μmol/L, HSA 500 μM; for free fraction of IS: displacer 3 mM, pH 7.40, median (IQR), baseline 10.0%; for concentration dependence of increase in free fraction of IS: displacer 1-3 mM
T1 construct: purchased Sigma-Aldrich (Saint Quentin Fallavier, France) A9511
Description: (§1) Control experiments were performed by adding the same volume of PBS instead of displacer. Then, 600 μL of samples were transferred in filtration devices (Corning®, Spin-X® UF Concentrator, Wiesbaden, Germany, MWCO: 5 kDa) and were centrifuged at 10,000 g for 5 min and 13,000 g for 15 min at room temperature. Ultrafiltrate was collected and free fraction of IS concentration were assayed fluorometrically as described thereafter.
(§2) Samples were diluted in PBS and fluorescence was measured with a Jasco FP-8300iRM Spectro-fluorometer (Jasco, Tokyo, Japan).
The free fraction of IS was measured using ultrafiltration experiments as described as described above.

In vitro hemolysis assay = format: cell-based, bovine; settings: bovine, blood, 37° C., control 1.5%; for hemolysis at 4 h, 3000 µM: 3 mmol/L; for hemolysis at 4 h: MCFA 1-3 mmol/L (exact concentration not stated), median (IQR)
Description: (§3) One milliliter of fresh bovine blood was incubated for 4 h at 37° C. with 50 μL of a solution of medium chain fatty acids (final concentration: 0.25, 0.5, 1, 2 or 3 mmol/L) or PBS as control. A positive control of hemolysis (taken as 100% hemolysis) was produced by incubating 1 mL of bovine blood with 0.1% (v/v) of TRITON X100 followed by 2 freeze-thaw cycles. Samples were centrifuged 2 min at 9000×g and plasma was stored at −20° C. until free hemoglobin assay. Hemolysis was estimated by the free hemoglobin concentration. Hemoglobin concentration was determined spectrophotometrically as described by Fairbanks et al (Clin Chem. 1992 January; 38 (1): 132-40). Briefly, plasma samples were diluted to 1:10 in Na2CO3 9.4 mmol/L and absorbance was read at 415 nm, 450 nm and 700 nm on a microplate reader (Tecan, Lyon, France).
(§4) Free hemoglobin concentration was calculated using the following equation: […]
(§5) Wherein: • fHb is the concentration of free hemoglobin in g/L, • A is the absorbance at the specified wavelength, • d is the dilution factor.
(§6) Results were expressed as percent of total hemolysis.
(§7) Fresh bovine blood was incubated for 4 h (the full duration of a typical hemodialysis session) at 37° C. in presence of MCFAs (1-3 mmol/L) and dosage of free hemoglobin in plasma was taken as an index of hemolysis (FIG. 6A-D).

human serum albumin [2] = target: T1, human serum albumin; assay: Ultrafiltration competition assay: displacement of p-CS from HSA; format: binding; settings: for free fraction of p-CS: displacer 3 mM, median (IQR), baseline 14%
Description: as §1, §2
The free fraction of p-CS was measured using ultrafiltration experiments as described as described above.

fresh bovine blood = assay: In vitro hemolysis assay; format: cell-based; settings: 4 h, 37° C.; for hemolysis compared to control: 1-3 mmol/L
Description: as §3, §4, §5, §6, §7

[3] = Hemodialysis of fresh bovine blood (closed loop): removal of p-CS
From the text: (§8) To assess the reality of the displacement and the increase of the removal of PBUT during a hemodialysis session, batches of 20 liters of fresh bovine blood were collected from the slaughterhouse under the authorization VC18731 (Oct. 4, 2018) issued from the Direction Départmentale de la Protection des Populations—Direction des Services Vétérinaires (DDPP-DSV, Lyon, France). Blood was heparinized at 3,750 UI/L with Sodium Heparin (Choay, Cheplapharm, France) and filtered on a nylon mesh. Two liters of blood (2 L) were spiked with 200 μmol/L of IS and gently stirred for 2 hours at 37° C. A 2-hour hemodialysis session was performed with Fresenius 5008 CorDiax hemodialysis generator (Fresenius, Sevres, France) and with a polysulfone-based hemodialysis membrane (FXHDF1000, 2.2 m^2, Fresenius Medical Care, Bad Homburg, Germany). Arterial and venous port were disposed in the blood batch to perform a closed loop circuit (see representation of the experimental device on FIG. 1). Blood and dialysate flow rates were set at 200 and 300 mL/min, respectively and dialysate temperature was set at 38° C. […] Blood samples were collected from the arterial lines at 0, 15, 30, 45, 60, 75, 90 and 120 minutes. Blood was centrifuged at 9,000 g for 2 minutes and plasma was stored at −20° C. […] At the beginning and the end of the experiment, hemolysis was estimated through the measurement of free hemoglobin in plasma as described above. Total protein concentration was measured according to the method of Lowry using bovine serum albumin as standard. Hematocrit was measured using a micromethod (Mondal H, Lotfollahzadeh S. Hematocrit. 2023 Jan. 2. In: StatPearls [Internet]. Treasure Island (FL): StatPearls Publishing; 2023). Briefly, 70 μL of blood was collected in a heparinized capillary tube. The end of the capillary tube was sealed with clay sealant and centrifuged at a rate of 9000 rpm for 5 min. The hematocrit level was read using a microhematocrit card reader.
(§9) 5-Hydroxyindole-2-carboxylic acid (5-HICA) was used as an internal standard in all experiments. Plasma samples were centrifugated at 17 000 rpm for 5 minutes. 125 μL of the supernatant was then pretreated using the Ostro Pass-through Sample Preparation Device (Waters, Saint-Quentin-en-Yvelines, France), including an in-well protein precipitation with acetonitrile (375 μL) in combination with a pass-through method that allows a good extraction. Eluants were evaporated to dryness in a gentle stream of nitrogen gas. […] Total PBUT concentrations were determined by a reverse phase HPLC with an isocratic flow at 0.2 ml/min. p-CS and IS were determined by fluorescence analysis (excitation λex: 270 nm; emission λem: 320 nm).

[4] = In vivo hemodialysis in anesthetized pigs: removal of IS; settings: octanoate vs saline, 2 h HD; P<0.05
[5] = Hemodialysis of fresh bovine blood (closed loop): removal of IS
From the text: as §8, §9

[6] = In vivo hemodialysis in anesthetized pigs: removal of p-CS; settings: octanoate vs saline, 2 h HD; P<0.05
pigs = assay: In vivo hemodialysis in anesthetized pigs: tolerance
bovine red blood cells = assay: Hemodialysis of fresh bovine blood: hematocrit, hemolysis, plasma protein; settings: continuous infusion of octanoate for 2 h
[7] = background art; cited from earlier work

T1 sequence (P02768 25-609): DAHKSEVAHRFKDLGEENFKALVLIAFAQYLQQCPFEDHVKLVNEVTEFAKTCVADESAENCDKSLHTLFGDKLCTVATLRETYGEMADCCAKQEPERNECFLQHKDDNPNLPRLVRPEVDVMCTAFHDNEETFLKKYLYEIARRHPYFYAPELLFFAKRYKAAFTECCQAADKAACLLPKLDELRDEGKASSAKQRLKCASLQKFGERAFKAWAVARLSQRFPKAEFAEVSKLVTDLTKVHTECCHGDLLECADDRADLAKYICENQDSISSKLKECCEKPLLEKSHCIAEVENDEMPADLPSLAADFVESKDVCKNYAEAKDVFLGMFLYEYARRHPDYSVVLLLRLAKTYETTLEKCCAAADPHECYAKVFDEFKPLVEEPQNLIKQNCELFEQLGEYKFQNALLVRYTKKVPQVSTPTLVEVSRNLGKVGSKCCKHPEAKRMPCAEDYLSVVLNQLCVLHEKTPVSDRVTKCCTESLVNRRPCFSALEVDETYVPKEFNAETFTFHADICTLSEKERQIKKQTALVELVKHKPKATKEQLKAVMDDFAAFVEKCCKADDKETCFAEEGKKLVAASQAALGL

With `CCCCCCCCCC(=O)O` [Decanoate, decanoic acid] the “free fraction of IS” value (human serum albumin [1]) was 54% (52%-58%), the hemolysis at 4 h, 3000 µM (In vitro hemolysis assay) was 21.9% and the “free fraction of p-CS” value (human serum albumin [2]) was 59% (57%-63%).

With `CCCCCCCCCCCC(=O)O` [Dodecanoate, dodecanoic acid] the “free fraction of IS” value (human serum albumin [1]) was 42% (41%-44%), the “concentration dependence of increase in free fraction of IS” value (human serum albumin [1]) was “dose dependently increased the free fraction of IS” and the hemolysis at 4 h, 500 µM (In vitro hemolysis assay; 0.5 mmol/L) was 15.3%. The hemolysis at 4 h, 3000 µM (In vitro hemolysis assay) was 24.9% and the concentration triggering hemolysis (fresh bovine blood; bovine blood) was “higher than 0.25 mmol/L”.

With `CCCCCC(=O)O` [Hexanoate, hexanoic acid] the “free fraction of IS” value (human serum albumin [1]) was 36% (34%-39%), the “concentration dependence of increase in free fraction of IS” value (human serum albumin [1]) was “only increased the free fraction of IS at the highest concentration tested” and the hemolysis at 4 h (In vitro hemolysis assay) was 3.6%. The “hemolysis compared to control” value (fresh bovine blood) was “did not trigger any significant hemolysis”, the “free fraction of p-CS” value (human serum albumin [2]) was 36% (34%-41%) and the “concentration dependence of increase in free fraction of p-CS” value (human serum albumin [2]; highest concentration 3 mM) was “only increased the free fraction of p-CS at the highest concentration tested”.

In the case of `CCCCCCCC(=O)O` [Octanoate, octanoic acid], the “fractional removal of p-CS” value ([3]; 2 h HD, octanoate infusion, control 38%, p<0.001) is reported as 88%, the “half-life of p-CS in plasma” value ([3]; octanoate infusion, control 20.6 min) is reported as 12.8 min and the “increase of fractional removal of p-CS” value ([3]; octanoate vs control, p<0.001) is reported as 2.3 folds. For the same compound, the “toxin removal, pCS” value ([3]; per-dialytic infusion of octanoate, control 0.3 μmol/min) was 1 μmol/min, the hemolysis at 4 h (In vitro hemolysis assay) was 2.3% and the “hemolysis compared to control” value (fresh bovine blood) was “did not trigger any significant hemolysis”. The “increase of dialytic clearance of IS” value [4] was “+113%”, the “fractional removal of IS” value ([5]; 2 h HD, octanoate infusion, control 36%, p<0.001) was 91% and the “half-life of IS in plasma” value ([5]; octanoate infusion, control 36.4 min) was 15.2 min. The “increase of fractional removal of IS” value ([5]; octanoate vs control, p<0.001) was 2.5 folds, the “toxin removal, IS” value ([5]; per-dialytic infusion of octanoate, control 1.5 μmol/min) was 3.5 µmol/min and the “increase of dialytic clearance of p-CS” value [6] was “+101%”. For the same compound, the hemolysis (pigs; hematocrit and free hemoglobin, sodium octanoate i.v. during HD) was “no hemolysis”, the tolerance (pigs; sodium octanoate 333 mmol/L i.v. at 18 mL/h, 2 h HD) was “Tolerance of all animals was good and no side effect was noticed” and the change in hematocrit (bovine red blood cells) was “did not elicit any significant change in hematocrit”. For the same compound, the “change in hemolysis levels” value (bovine red blood cells) was “did not elicit any significant change in hematocrit or hemolysis levels”.

For `CCCCC/C=C\C/C=C\CCCCCCCC(=O)O` [linoleic acid], the effect on dyslipidemia [7] is given as “exacerbate dyslipidemia”.

For `CCCCCCCC/C=C\CCCCCCCC(=O)O` [oleic acid], the effect on dyslipidemia [7] is given as “exacerbate dyslipidemia”.
